From US20230183216A1, “PYRIDIZIN-3(2H)-ONE DERIVATIVES” (Gilead Sciences, Inc., priority 2021, published 2023)
pEC50, pIC50: −log10 of the molar value.

Key:
[1] = system: STAT1 (phosphorylated at Tyr701) in NCI-H1373 cells; assay: Phospho-STAT1 (Tyr701) LANCE Ultra TR-FRET Detection Assay; assay type: cell-based; conditions: Homo sapiens, 48 hours, induction of pSTAT1, normalized to 10 uM positive control and DMSO, 4-parameter fit, read-out: NH1373 pSTAT1 EC50
Method: Phospho-STAT1 (Tyr701 LANCE Ultra TR-FRET Detection Assay
LANCE Ultra phospho-STAT1 (Tyr701) kits available from Perkin Elmer are designed for the detection of phosphorylated STAT1 in cell lysates using a simple, homogeneous LANCE Ultra sandwich assay (Cat. #TRF4028M). This assay is intended for assessing compound induction of endogenous levels of cellular STAT1 (phosphorylated at Tyr701) in NCI-H1373 cells. The NCI-H1373 cells are cultured in RPMI 1640 media containing 10% heat inactivated FBS, GlutaMAX, 1% Penicillin-Streptomycin. An Echo acoustic liquid handler is used to transfer 60 nanoliters of compound dilutions using the Echo Qualified, 384-well polypropylene microplate clear flat bottom source plates into a Greiner (#781080) cell culture microplate. NCI-H1373 cells are seeded into these compound-spotted culture plates at 30,000 cells/well in a 60 uL volume in growth media. The plates are incubated in a 5% CO2 humidified incubator at 37° C. for 48 hours. […] Briefly, 20 μL of supplemented lysis buffer is added to each well and allowed to shake for 1 hour at 400 rpm. Next, 5 ul of remixed antibody solutions (vol/vol) prepared in detection buffer are added to each well and allowed to incubate at room temperature overnight. After spinning the plate down at 300 rpm for […], the plate is read on an EnVision plate reader set up for Eu3+ Cryptate and fluorescence emission is measured at two different wavelengths (665 nm and 620 nm).

[2] = target: T1, PARP7 (Homo sapiens, UniProt Q7Z3E1); assay: biochemical;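 also: MSD light signal quantifying PARP7 captured by a plate-immobilized probe, read after 1.5 h equilibration plus 1.5 h with SULFO-TAG anti-GST antibody at room temperature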
T1 sequence (Q7Z3E1 1-657): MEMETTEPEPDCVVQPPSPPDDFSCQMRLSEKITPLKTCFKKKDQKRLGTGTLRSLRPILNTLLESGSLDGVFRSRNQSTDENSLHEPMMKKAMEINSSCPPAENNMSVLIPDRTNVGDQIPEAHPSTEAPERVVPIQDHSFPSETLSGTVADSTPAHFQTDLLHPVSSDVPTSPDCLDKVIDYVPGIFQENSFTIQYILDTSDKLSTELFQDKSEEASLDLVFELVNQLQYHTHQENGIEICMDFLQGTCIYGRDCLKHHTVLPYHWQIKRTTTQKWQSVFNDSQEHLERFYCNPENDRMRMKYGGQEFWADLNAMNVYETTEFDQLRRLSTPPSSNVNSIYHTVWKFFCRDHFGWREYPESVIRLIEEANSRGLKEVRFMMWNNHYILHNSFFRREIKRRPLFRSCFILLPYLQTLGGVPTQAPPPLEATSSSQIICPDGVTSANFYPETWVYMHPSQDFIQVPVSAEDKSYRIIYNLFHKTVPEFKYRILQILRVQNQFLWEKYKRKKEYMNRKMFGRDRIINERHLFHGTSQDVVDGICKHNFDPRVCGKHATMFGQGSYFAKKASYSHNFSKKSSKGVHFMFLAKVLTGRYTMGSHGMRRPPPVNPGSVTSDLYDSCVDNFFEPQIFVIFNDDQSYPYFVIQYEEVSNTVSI

| pIC50 [2] | Structure (SMILES) | pEC50 [1] |
| --- | --- | --- |
| 8.99 | O=C([C@@H]1C[C@@H]1CNc1cc(C(F)(F)F)c(=O)[nH]n1)N1CCN(c2ncc(C(F)(F)F)cn2)CC1 (racemic) [Example 24, Cis-(+)-4-(trifluoromethyl)-6-(((2-(4-(5-(trifluoromethyl)pyrimidin-2-yl)piperazine-1-carbonyl)cyclopropyl)methyl)amino)pyridazin-3(2H)-one] | 5.53 |
| 9.65 | O=C(CCC[C@@H]1CCCc2c1n[nH]c(=O)c2C(F)(F)F)N1CCN(c2ncc(C(F)(F)F)cn2)CC1 (single isomer, unassigned) [Example 76] | 7.42 |
| 8.85 | O=C(CCC[C@H]1CCCc2c1n[nH]c(=O)c2C(F)(F)F)N1CCN(c2ncc(C(F)(F)F)cn2)CC1 (single isomer, unassigned) [Example 77] | 6.28 |
| 9.54 | O=C(CCCCc1cc(C(F)(F)F)c(=O)[nH]n1)N1CCN(c2ncc(C(F)(F)F)cn2)CC1 [Example 1, 6-(5-oxo-5-(4-(5-(trifluoromethyl)pyrimidin-2-yl)piperazin-1-yl)pentyl)-4-(trifluoromethyl)pyridazin-3(2H)-one] | 7.22 |
| – | O=C(CCCCCc1cc(C(F)(F)F)c(=O)[nH]n1)N1CCN(c2ncc(C(F)(F)F)cn2)CC1 [Example 2, 6-(6-oxo-6-(4-(5-(trifluoromethyl)pyrimidin-2-yl)piperazin-1-yl)hexyl)-4-(trifluoromethyl)pyridazin-3(2H)-one] | ≤ 5.00 |
| – | O=C(CCc1ccccc1-c1cc(C(F)(F)F)c(=O)[nH]n1)N1CCN(c2ncc(C(F)(F)F)cn2)CC1 [Example 3, 6-(2-(3-oxo-3-(4-(5-(trifluoromethyl)pyrimidin-2-yl)piperazin-1-yl)propyl)phenyl)-4-(trifluoromethyl)pyridazin-3(2H)-one] | ≤ 5.00 |
| 7.44 | O=C(Cc1ccccc1-c1cc(C(F)(F)F)c(=O)[nH]n1)N1CCN(c2ncc(C(F)(F)F)cn2)CC1 [Example 4, 6-(2-(2-oxo-2-(4-(5-(trifluoromethyl)pyrimidin-2-yl)piperazin-1-yl)ethyl)phenyl)-4-(trifluoromethyl)pyridazin-3(2H)-one] | ≤ 5.00 |
| – | O=C(CCCc1ccccc1-c1cc(C(F)(F)F)c(=O)[nH]n1)N1CCN(c2ncc(C(F)(F)F)cn2)CC1 [Example 5, 6-(2-(4-oxo-4-(4-(5-(trifluoromethyl)pyrimidin-2-yl)piperazin-1-yl)butyl)phenyl)-4-(trifluoromethyl)pyridazin-3(2H)-one] | ≤ 5.00 |
| 9.02 | O=C(CCc1cc(C(F)(F)F)c(=O)[nH]n1)N1CCN(c2ncc(C(F)(F)F)cn2)CC1 [Example 7, 6-(3-oxo-3-(4-(5-(trifluoromethyl)pyrimidin-2-yl)piperazin-1-yl)propyl)-4-(trifluoromethyl)pyridazin-3(2H)-one] | 6.46 |
| 8.86 | CC(CCCC(=O)N1CCN(c2ncc(C(F)(F)F)cn2)CC1)c1cc(C(F)(F)F)c(=O)[nH]n1 (centres unmarked) [Example 8, 6-(6-oxo-6-(4-(5-(trifluoromethyl)pyrimidin-2-yl)piperazin-1-yl)hexan-2-yl)-4-(trifluoromethyl)pyridazin-3(2H)-one] | 6.15 |
| 8.84 | O=C(N1CCN(c2ncc(C(F)(F)F)cn2)CC1)C1(CCCc2cc(C(F)(F)F)c(=O)[nH]n2)CC1 [Example 9, 4-(trifluoromethyl)-6-(3-(1-(4-(5-(trifluoromethyl)pyrimidin-2-yl)piperazine-1-carbonyl)cyclopropyl)propyl)pyridazin-3(2H)-one] | 5.75 |
| – | CC(C)(CCCc1cc(C(F)(F)F)c(=O)[nH]n1)C(=O)N1CCN(c2ncc(C(F)(F)F)cn2)CC1 [Example 10, 6-(4,4-dimethyl-5-oxo-5-(4-(5-(trifluoromethyl)pyrimidin-2-yl)piperazin-1-yl)pentyl)-4-(trifluoromethyl)pyridazin-3(2H)-one] | ≤ 5.00 |
| – | O=C(c1cccc(Oc2cc(C(F)(F)F)c(=O)[nH]n2)c1)N1CCN(c2ncc(C(F)(F)F)cn2)CC1 [Example 35, 4-(trifluoromethyl)-6-(3-(4-(5-(trifluoromethyl)pyrimidin-2-yl)piperazine-1-carbonyl)phenoxy)pyridazin-3(2H)-one] | ≤ 5.00 |
| – | O=C(CCCNc1c[nH]c(=O)c(C(F)(F)F)c1)N1CCN(c2ncc(C(F)(F)F)cn2)CC1 [Example 41, 5-((4-oxo-4-(4-(5-(trifluoromethyl)pyrimidin-2-yl)piperazin-1-yl)butyl)amino)-3-(trifluoromethyl)pyridin-2(1H)-one] | ≤ 5.00 |
| – | O=C([C@H]1CN(c2cc(C(F)(F)F)c(=O)[nH]n2)CCO1)N1CCN(c2ncc(C(F)(F)F)cn2)CC1 [Example 45, (R)-4-(trifluoromethyl)-6-(2-(4-(5-(trifluoromethyl)pyrimidin-2-yl)piperazine-1-carbonyl)morpholino)pyridazin-3(2H)-one] | ≤ 5.00 |
| – | O=c1[nH]nc(N[C@]23CO[C@](C(=O)N4CCN(c5ncc(C(F)(F)F)cn5)CC4)(C2)C3)cc1C(F)(F)F [Example 46, 5-(trifluoromethyl)-3-[[1-[4-[5-(trifluoromethyl)pyrimidin-2-yl]piperazine-1-carbonyl]-2-oxabicyclo[2.1.1]hexan-4-yl]amino]-1H-pyridazin-6-one] | ≤ 5.00 |
| – | O=c1[nH]nc(N[C@]23CC[C@](C(=O)N4CCN(c5ncc(C(F)(F)F)cn5)CC4)(C2)C3)cc1C(F)(F)F [Example 48, 5-(trifluoromethyl)-3-[[4-[4-[5-(trifluoromethyl)pyrimidin-2-yl]piperazine-1-carbonyl]-1-bicyclo[2.1.1]hexanyl]amino]-1H-pyridazin-6-one] | ≤ 5.00 |
| – | O=c1[nH]nc(NCC2(N3CCN(c4ncc(C(F)(F)F)cn4)CC3)COC2)cc1C(F)(F)F [Example 59, 5-(trifluoromethyl)-3-[[3-[4-[5-(trifluoromethyl)pyrimidin-2-yl]piperazin-1-yl]oxetan-3-yl]methylamino]-1H-pyridazin-6-one] | ≤ 5.00 |
| – | O=C([C@H]1CC[C@@H](Nc2cc(C(F)(F)F)c(=O)[nH]n2)C1)N1CCN(c2ncc(C(F)(F)F)cn2)CC1 [Example 63, 5-(trifluoromethyl)-3-[[(1R,3S)-3-[4-[5-(trifluoromethyl)pyrimidin-2-yl]piperazine-1-carbonyl]cyclopentyl]amino]-1H-pyridazin-6-one] | ≤ 5.00 |
| – | C[C@H](Nc1cc(C(F)(F)F)c(=O)[nH]n1)C(=O)N1CCN(c2ncc(C(F)(F)F)cn2)CC1 [Example 64, 3-[[(1S)-1-methyl-2-oxo-2-[4-[5-(trifluoromethyl)pyrimidin-2-yl]piperazin-1-yl]ethyl]amino]-5-(trifluoromethyl)-1H-pyridazin-6-one] | 6.47 |
| – | O=C([C@H]1CC[C@H](Nc2cc(C(F)(F)F)c(=O)[nH]n2)C1)N1CCN(c2ncc(C(F)(F)F)cn2)CC1 [Example 65, 5-(trifluoromethyl)-3-[[(1S,3S)-3-[4-[5-(trifluoromethyl)pyrimidin-2-yl]piperazine-1-carbonyl]cyclopentyl]amino]-1H-pyridazin-6-one] | ≤ 5.00 |
| – | C[C@@H](Nc1cc(C(F)(F)F)c(=O)[nH]n1)C(=O)N1CCN(c2ncc(C(F)(F)F)cn2)CC1 [Example 66, 3-[[(1R)-1-methyl-2-oxo-2-[4-[5-(trifluoromethyl)pyrimidin-2-yl]piperazin-1-yl]ethyl]amino]-5-(trifluoromethyl)-1H-pyridazin-6-one] | ≤ 5.00 |
| – | O=C(C[C@@H]1CCc2c1n[nH]c(=O)c2C(F)(F)F)N1CCN(c2ncc(C(F)(F)F)cn2)CC1 [Example 80, (S)-7-(2-oxo-2-(4-(5-(trifluoromethyl)pyrimidin-2-yl)piperazin-1-yl)ethyl)-4-(trifluoromethyl)-2,5,6,7-tetrahydro-3H-cyclopenta[c]pyridazin-3-one] | 6.37 |
| – | O=C(C[C@H]1CCc2c1n[nH]c(=O)c2C(F)(F)F)N1CCN(c2ncc(C(F)(F)F)cn2)CC1 [Example 81, (R)-7-(2-oxo-2-(4-(5-(trifluoromethyl)pyrimidin-2-yl)piperazin-1-yl)ethyl)-4-(trifluoromethyl)-2,5,6,7-tetrahydro-3H-cyclopenta[c]pyridazin-3-one] | ≤ 5.00 |
